This is an account of results in patent US6987127B2, “Regulation of NAD(P)H oxidase growth and transcription in melanoma cells” (Charlotte-Mecklenburg Hospital Authority, priority 2001, dated 2006).

By inhibition is commonly meant the drop in the measured response relative to a control, in per cent.

Series [1] concerns M1619 malignant melanoma cells. Put plainly: Proliferation of cultured cells with oxidase inhibitors (MTT assay). Format: cell-based, human. The note with it: for Melanoma growth: M1619, data not shown. In general terms: Formazan colour is commonly taken as a measure of viable cells.
Series [2] relates to M1619 cells. Put plainly: Proliferation after transfection of p22phox or NOX4 sense/antisense oligonucleotides (MTT assay). Format: cell-based, human. The note with it: 2 μg oligonucleotide, 6 hours transfection, 48 hours growth, P<0.01.
Series [3] has as its system H596 non-small-cell lung cancer cells. The note with it: Brar et al. (2001); cited from earlier work.
The subject of series [4] is M1619 malignant melanoma cells. The note with it: Brar and co-workers; cited from earlier work.
The subject of series [5] is NF-κB p65. The note with it: M1619 cells, 50 μmol/L overnight.
Series [6] relates to cyclic-AMP responsive element (CRE). The note with it: M1619 cells, overnight, 10, 15, 20 μmoles/L; P<0.001 vs untreated.
Series [7] concerns AP-1. The note with it: M1619 cells, overnight, 10-20 μmoles/L.
Series [8] concerns IκBα. The note with it: M1619 cells, 25 μmoles/L overnight.
In series [9] the test system is p65 component of NF-κB. The note with it: M1619 cells, 50 μmol/L overnight.
Series [10] has as its system NF-κB. The note with it: M1619 cells, 50 μmol/L overnight; P<0.001 by densitometry.
The subject of series [11] is OCT-1. The note with it: M1619 cells, overnight, 10-20 μmoles/L.

For `N=C(NCCC[C@H](N)C(=O)O)N[N+](=O)[O-]` [ω-nitro-L-arginine], the Melanoma growth result in [1] (100 μmol/L) is “unaffected”.
Regarding “NOX4 antisense oliogonucleotides: antisense 5′-AGCTCCTCCAGGACACAGCC-3′ based on NOX4 gene-specific sequence (listed as DNA, chemistry not given here)”, in series [2], the “Subsequent growth compared with sense oligonucleotides” value is listed as “significantly reduced subsequent growth”.
On to `O=c1oc2ccccc2c(O)c1Cc1c(O)c2ccccc2oc1=O` [dicumarol], for which the “Growth of H596 non-small-cell lung cancer cells” value in [3] is reported as “inhibited growth”. The “Cellular proliferation in M1619 malignant melanoma cells” value in series [4] is given as “inhibition”.
Take `c1ccc2c(c1)[I+]c1ccccc1-2` [DPI, diphenylene iodonium]: the “Constitutive nuclear translocation of NF-κB (anti-p65 staining in nuclei)” value in series [5] is recorded as “reduces constitutive nuclear translocation of NF-κB”. For the same compound, the “CRE DNA binding activity of nuclear protein” value in series [6] was “inhibits CRE-binding activity in a dose-dependent manner”. In addition, the “DNA binding to the AP-1 oligonucleotide consensus sequence” value in [7] was “does not inhibit”. The “Phosphorylation of the NF-κB inhibitor IκBα (serine 32)” value in series [8] is given as “decreased phosphorylation”. Also, the “Immunoreactive p65 in nuclear protein” value in series [9] was “reduces immunoreactive p65 in nuclear protein”. In addition, the “Constitutive NF-κB DNA binding” value in series [10] is “greatly reduced”. Also, the “DNA binding to the OCT-1 oligonucleotide consensus sequence” value in series [11] is on record as “does not inhibit”. For the same compound, the inhibition at 50 µM in [1] (Homo sapiens, after 48 hours, highest dose (50 μmol/L), 10% FBS, P<0.001, read-out: Inhibition of M1619 malignant melanoma cell growth) turned out to be 86 ± 0.5%.
For the compound “p22^phox antisense oliogonucleotides: previously reported antisense 5′-GATCTGCCCCATGGTGAGGACC-3′ for p22phox mRNA (listed as DNA, chemistry not given here)”, in [2], the “Subsequent growth compared with sense oligonucleotides” value is reported as “significantly reduced subsequent growth”.
As for `Oc1ncnc2[nH]ncc12` [allopurinol], the Melanoma growth result in [1] (1 mmol/L) is recorded as “unaffected”.
